Test results: paper PMC7701510, “Identification of HN252 as a potent inhibitor of protein phosphatase PPM1B” (Journal of Cellular and Molecular Medicine, 2020)
“Also recorded” adds a separate entry of the source.

Legend:
[1] = target: T1, PPM1B (Homo sapiens, UniProt O75688); assay: Fluorescence quenching assay (fluorescence titration); assay type: binding; conditions: PPM1B 8 μM, 25°C, excitation 280 nm, emission 332 nm; read-out: dissociation constant Kd
T1 construct: inferred from pET-28a vector and Ni-NTA purification; made in house; host or cells: Escherichia coli BL21
T1 sequence (O75688 1-479): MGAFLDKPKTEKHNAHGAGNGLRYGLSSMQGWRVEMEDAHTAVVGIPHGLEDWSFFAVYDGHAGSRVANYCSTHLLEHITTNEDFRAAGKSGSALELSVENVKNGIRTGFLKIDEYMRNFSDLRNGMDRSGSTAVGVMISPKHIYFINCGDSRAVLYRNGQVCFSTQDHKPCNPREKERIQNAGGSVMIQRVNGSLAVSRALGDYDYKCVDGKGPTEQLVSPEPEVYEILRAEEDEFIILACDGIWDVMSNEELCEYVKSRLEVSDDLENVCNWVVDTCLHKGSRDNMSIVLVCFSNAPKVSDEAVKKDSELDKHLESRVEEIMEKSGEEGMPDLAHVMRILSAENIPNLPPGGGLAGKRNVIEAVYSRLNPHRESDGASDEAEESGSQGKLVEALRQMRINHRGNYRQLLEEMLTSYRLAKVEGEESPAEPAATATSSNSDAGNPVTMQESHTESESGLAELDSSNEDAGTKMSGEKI
Description: The interaction between PPM1B recombinant proteins and compound HN252 was determined by fluorescence titration as previously described. ^20 PPM1B proteins were dialysed against PBS and incubated with different concentrations of HN252. The fluorescent quenching was conducted at 25°C, and fluorescence spectra were recorded by Cytation 5 Multi‐Mode Plate Reader (BioTek) using excitation at 280 nm and emission at 332 nm. The dissociation constant (Kd) of HN252 to PPM1B was calculated as previously described. ^20

[2] = test system: HL7702 cells with PPM1B shRNA; assay: Western blot of protein phosphorylation in PPM1B knockdown cells with HN252; conditions: HN252 5 μM, 2 h, at 30 h after transfection
Description: Cells were lysed in lysis buffer (50 mM Tris‐HCl, 150 mM NaCl, 0.1% SDS, 1% NP‐40, 0.5% deoxycholate, pH 7.4), supplemented with protease inhibitor (Roche) and phosphatase inhibitor cocktails (Roche). Protein samples were separated by SDS‐PAGE and wet‐transferred to PVDF membranes (Millipore). The membrane was blocked for 1 h in 5% BSA in TBST at room temperature and probed with the appropriate primary antibodies and with an HRP‐conjugated secondary antibody.

[3] = target: PRL; assay: pNPP hydrolysis phosphatase assay (selectivity panel); assay type: biochemical; conditions: pNPP as substrate
[4] = target: T2, PPM1G (Homo sapiens, UniProt O15355); assay: as above; assay type: biochemical; conditions: pNPP as substrate
T2 sequence (O15355 1-546): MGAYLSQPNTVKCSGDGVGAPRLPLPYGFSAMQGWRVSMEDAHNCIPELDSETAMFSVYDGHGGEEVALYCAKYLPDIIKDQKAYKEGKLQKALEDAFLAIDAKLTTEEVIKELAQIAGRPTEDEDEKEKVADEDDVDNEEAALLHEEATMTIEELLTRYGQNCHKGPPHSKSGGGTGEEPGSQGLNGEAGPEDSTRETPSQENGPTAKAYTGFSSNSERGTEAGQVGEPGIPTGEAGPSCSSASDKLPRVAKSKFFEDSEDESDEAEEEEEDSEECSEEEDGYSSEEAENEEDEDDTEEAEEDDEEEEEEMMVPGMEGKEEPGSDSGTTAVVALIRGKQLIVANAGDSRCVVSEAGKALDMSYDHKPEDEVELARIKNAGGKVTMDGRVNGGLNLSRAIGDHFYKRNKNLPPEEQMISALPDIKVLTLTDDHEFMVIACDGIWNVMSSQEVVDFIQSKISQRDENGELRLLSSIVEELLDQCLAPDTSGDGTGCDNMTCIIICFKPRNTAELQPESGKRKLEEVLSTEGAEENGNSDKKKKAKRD

[5] = target: T3, PPM1K (Homo sapiens, UniProt Q8N3J5); assay: as above; assay type: biochemical; conditions: pNPP as substrate
T3 sequence (Q8N3J5 30-372): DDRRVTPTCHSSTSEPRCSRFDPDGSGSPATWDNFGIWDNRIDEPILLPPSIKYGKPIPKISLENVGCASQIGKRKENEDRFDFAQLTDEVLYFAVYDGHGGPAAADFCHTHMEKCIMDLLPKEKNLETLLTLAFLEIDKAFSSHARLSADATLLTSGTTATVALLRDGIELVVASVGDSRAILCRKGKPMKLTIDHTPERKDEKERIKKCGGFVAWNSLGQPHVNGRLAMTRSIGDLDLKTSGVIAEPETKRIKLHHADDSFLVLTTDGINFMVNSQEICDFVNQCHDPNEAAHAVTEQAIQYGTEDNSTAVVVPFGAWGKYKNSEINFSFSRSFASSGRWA

[6] = test system: HL7702 cells; assay: Phospho Explorer Antibody Microarray, HN252 treatment; assay type: cell-based; conditions: 2-hours exposure, HN252 5 μM
[7] = target: T1, PPM1B; assay: pNPP hydrolysis phosphatase kinetic assay; assay type: biochemical
Description: Escherichia coli BL21 strain was transformed with pET‐28a bacterial expression vector harbouring PPM1B and its mutants. ^17 The fusion proteins were induced to be expressed with 0.5 mM isopropyl‐β‐D‐thiogalactoside (IPTG) and purified from bacterial lysate by Ni‐NTA chromatographic matrices (Qiagen) and AKTA FPLC (GE Healthcare Life Sciences) using a Superdex Increase 200 column.
The kinetic assays of PPM1B were carried out at 37°C in 0.1 M acetic acid buffer (50 mM Tris, 40 mM Mn^2+, pH 7.0). The p‐nitrophenyl phosphate (pNPP, Sigma) was used as the substrate which could be conveniently measured at 405 nm. Reactions were started by addition of pNPP to a reaction mixture containing PPM1B (0.4 μM PPM1B, final concentration) and various concentrations of HN252 and stopped by addition of 0.5 M EDTA (pH 10.0) after an appropriate time. The Km value of PPM1B towards pNPP hydrolysis (3.6 mM for pNPP) was used to determine the IC50. The IC50 values, the inhibition constant Ki and inhibition pattern were evaluated as previously described. ^18 The kinetic assays of HN252 towards to other protein phosphatases were carried out as previously described. ^19

## Nc1cc(-c2ccc(-c3ccc(O)c(O)c3)cc2)ccc1C(=O)O [HN252]
[1]
  Kd: 42.3 ± 6.47 µM
[2]
  effect on phosphorylation of AMPKα, CDK2 and p38: mild effect
[3]
  IC50: > 50 µM
[4]
  IC50: 32.6 ± 5.54 µM
[5]
  IC50: 27.4 ± 3.92 µM
[6]
  number of proteins with enhanced phosphorylation (1.5-fold vs control) also elevated in PPM1B knockdown cells: 30
[7]; Lineweaver-Burk plot, pNPP hydrolysis, pH 7.0, 37°C
  inhibition pattern: competitive inhibition; also recorded: classical competitive inhibitor
[7]; Lineweaver-Burk, pNPP, pH 7.0, 37°C, 0.4 μM PPM1B, 40 mM Mn2+
  Ki: 0.52 ± 0.06 µM
[7]; pNPP substrate, 0.4 μM PPM1B, 40 mM Mn2+, pH 7.0, 37°C, wild type
  IC50: 0.76 µM
[7]; versus PPM1F, PPM1G, PPM1K, PHLPP2, PPM1A a notable exception
  selectivity: increase in potency against PPM1B than other PSPs: about 30 fold
